Source: US7485259B2, “Organic compound and metal ion synergistic disinfection and purification system and method of manufacture” (priority 2003, dated 2009)

Columns and labels:
[1] = after 60 days; cited from earlier work
[2] = system: L. pneumophila serogroup 1; conditions: ion used alone; cited from earlier work
MS2 = conditions: in 12 hours; cited from earlier work
Klebsiella terrigena = assay: Disinfection of seeded test waters, log reduction of Klebsiella; conditions: seeded municipal water
poliovirus = conditions: in 12 hours; cited from earlier work
MS2 bacteriophage = assay: Disinfection of seeded test waters, log reduction of MS2 virus; conditions: contact up to 24 hours

Row | Molecule | share of initial input detectable in the test chambers [1] | contact time to achieve complete (6 log) inactivation of Legionella [2] | log inactivation of MS2 (MS2) | log reduction of Klebsiella (Klebsiella terrigena; 60 minute contact time) | log reduction of Klebsiella (Klebsiella terrigena; 240 minutes contact time) | log inactivation of poliovirus (poliovirus) | reduction of MS2 virus (MS2 bacteriophage; seeded municipal water) | reduction of MS2 virus (MS2 bacteriophage; seeded untreated natural waters)
1 | [Cu+2] [copper ions] | 75% | 2.5 hours | 4.0 log | less than 3 log | less than 5 log | 1.3 log | – | –
2 | silver ions | 44% | 24 hours | – | 5 log | – | – | No effective reduction | No effective reduction
